Species on record: Rattus norvegicus
Assay: Open TG-GATES - Regimen: Daily Repeat
Assay type: toxicity, organism-based, Sprague-Dawley
Design: regimen Daily Repeat, gender Male, age 6 weeks
Details: in vivo, po, 300 mg/kg, route gavage, dose level High; for APTT / Bas / Eos / Fbg / Hb / Ht / Lym / MCH / MCHC / MCV / Mono / Neu / PT / Plat / RBC / Ret / WBC: tissue Blood; for KIDNEY_L / KIDNEY_R / KIDNEY_TOTAL: tissue Kidney; for LIVER: tissue Liver; for A/G / ALP / ALT / AST / BUN / CRE / Ca / Cl / DBIL / GLC / IP / K / LDH / Na / PL / RALB / TBIL / TC / TG / TP / gamma-GTP: tissue Plasma

`ClC(Cl)(Cl)Cl` [CARBON TETRACHLORIDE] was tested, and the TERMINAL_BW (72 h, time 3 day) was 213 g, the APTT (72 h, time 3 day) was 21.4 s and the Bas (72 h, time 3 day) was 0%. It also gave an Eos (72 h, time 3 day) of 1%, a Fbg (72 h, time 3 day) of 217 mg/dL and a Hb (72 h, time 3 day) of 14.1 g/dL. The Ht (72 h, time 3 day) was 41.3%, the Lym (72 h, time 3 day) was 73% and the MCH (72 h, time 3 day) was 21.6 pg. The MCHC (72 h, time 3 day) was 34.1%, the MCV (72 h, time 3 day) was 63.2 fL and the Mono (72 h, time 3 day) was 4%. For the same molecule, the Neu (72 h, time 3 day) was 20.4%, the PT (72 h, time 3 day) was 13.5 s and the Plat (72 h, time 3 day) was 114.2 x10_4/uL. It also gave an RBC (72 h, time 3 day) of 655 x10_4/ul, a Ret (72 h, time 3 day) of 5.5% and a WBC (72 h, time 3 day) of 96.3 x10_2/uL. The KIDNEY_L (72 h, time 3 day) was 1 g, the KIDNEY_R (72 h, time 3 day) was 1 g and the KIDNEY_TOTAL (72 h, time 3 day) was 1.9 g. It also gave an LIVER (72 h, time 3 day) of 11.1 g, an A/G (72 h, time 3 day) of 1.5 and an ALP (72 h, time 3 day) of 1664.6 IU/L. The ALT (72 h, time 3 day) was 124.8 IU/L, the AST (72 h, time 3 day) was 283.8 IU/L and the BUN (72 h, time 3 day) was 14.6 mg/dL. For the same molecule, the CRE (72 h, time 3 day) was 0.4 mg/dL, the Ca (72 h, time 3 day) was 10.7 mg/dL and the Cl (72 h, time 3 day) was 103.8 meq/L. The DBIL (72 h, time 3 day) was 0.068 mg/dL, the GLC (72 h, time 3 day) was 178.4 mg/dL and the IP (72 h, time 3 day) was 7.3 mg/dL. It also gave a K (72 h, time 3 day) of 3.8 meq/L, an LDH (72 h, time 3 day) of 355.2 IU/L and a Na (72 h, time 3 day) of 140.4 meq/L. It also gave a PL (72 h, time 3 day) of 116.4 mg/dL, an RALB (72 h, time 3 day) of 3.1 g/dL and a TBIL (72 h, time 3 day) of 0.1 mg/dL. It also gave a TC (72 h, time 3 day) of 49.8 mg/dL, a TG (72 h, time 3 day) of 28.6 mg/dL and a TP (72 h, time 3 day) of 5.3 g/dL. The gamma-GTP (72 h, time 3 day) was 1.2 IU/L, the TERMINAL_BW ([…], time 7 day) was 248.2 g and the TERMINAL_BW ([…], time 14 day) was 287.9 g. It also gave a TERMINAL_BW ([…], time 28 day) of 367.6 g, an APTT ([…], time 7 day) of 20.7 s and a Bas ([…], time 7 day) of 0%. For the same molecule, the Eos ([…], time 7 day) was 1%, the Fbg ([…], time 7 day) was 230.4 mg/dL and the Hb ([…], time 7 day) was 13.5 g/dL. For the same molecule, the Ht ([…], time 7 day) was 39.2%, the Lym ([…], time 7 day) was 78.8% and the MCH ([…], time 7 day) was 21.4 pg. For the same molecule, the MCHC ([…], time 7 day) was 34.4%, the MCV ([…], time 7 day) was 62.3 fL and the Mono ([…], time 7 day) was 3.6%. It also gave a Neu ([…], time 7 day) of 16.2%, a PT ([…], time 7 day) of 12.4 s and a Plat ([…], time 7 day) of 106.7 x10_4/uL. The RBC ([…], time 7 day) was 629.6 x10_4/ul, the Ret ([…], time 7 day) was 6% and the WBC ([…], time 7 day) was 130.8 x10_2/uL. The APTT ([…], time 14 day) was 23 s, the Bas ([…], time 14 day) was 0% and the Eos ([…], time 14 day) was 1%. The Fbg ([…], time 14 day) was 211.6 mg/dL, the Hb ([…], time 14 day) was 14.2 g/dL and the Ht ([…], time 14 day) was 42.3%. It also gave a Lym ([…], time 14 day) of 81.4%, an MCH ([…], time 14 day) of 19.1 pg and an MCHC ([…], time 14 day) of 33.7%. It also gave an MCV ([…], time 14 day) of 56.9 fL, a Mono ([…], time 14 day) of 3% and a Neu ([…], time 14 day) of 14.2%. It also gave a PT ([…], time 14 day) of 12.6 s, a Plat ([…], time 14 day) of 101.2 x10_4/uL and an RBC ([…], time 14 day) of 744.4 x10_4/ul. The Ret ([…], time 14 day) was 3.5%, the WBC ([…], time 14 day) was 113.3 x10_2/uL and the APTT ([…], time 28 day) was 25.3 s. The Bas ([…], time 28 day) was 0%, the Eos ([…], time 28 day) was 1% and the Fbg ([…], time 28 day) was 198.8 mg/dL. For the same molecule, the Hb ([…], time 28 day) was 14.5 g/dL, the Ht ([…], time 28 day) was 43.1% and the Lym ([…], time 28 day) was 82.4%. It also gave an MCH ([…], time 28 day) of 17.9 pg, an MCHC ([…], time 28 day) of 33.6% and an MCV ([…], time 28 day) of 53.1 fL. For the same molecule, the Mono ([…], time 28 day) was 3.4%, the Neu ([…], time 28 day) was 13.2% and the PT ([…], time 28 day) was 13.7 s. It also gave a Plat ([…], time 28 day) of 99.7 x10_4/uL, an RBC ([…], time 28 day) of 811.4 x10_4/ul and a Ret ([…], time 28 day) of 2.3%. The WBC ([…], time 28 day) was 151.6 x10_2/uL, the KIDNEY_L ([…], time 7 day) was 1.1 g and the KIDNEY_R ([…], time 7 day) was 1.1 g. It also gave a KIDNEY_TOTAL ([…], time 7 day) of 2.2 g, a KIDNEY_L ([…], time 14 day) of 1.1 g and a KIDNEY_R ([…], time 14 day) of 1.1 g. For the same molecule, the KIDNEY_TOTAL ([…], time 14 day) was 2.2 g, the KIDNEY_L ([…], time 28 day) was 1.2 g and the KIDNEY_R ([…], time 28 day) was 1.2 g. It also gave a KIDNEY_TOTAL ([…], time 28 day) of 2.5 g, an LIVER ([…], time 7 day) of 13.7 g and an LIVER ([…], time 14 day) of 15.9 g. It also gave an LIVER ([…], time 28 day) of 20.8 g, an A/G ([…], time 7 day) of 1.6 and an ALP ([…], time 7 day) of 1583 IU/L. It also gave an ALT ([…], time 7 day) of 72.2 IU/L, an AST ([…], time 7 day) of 139.2 IU/L and a BUN ([…], time 7 day) of 16 mg/dL. For the same molecule, the CRE ([…], time 7 day) was 0.4 mg/dL, the Ca ([…], time 7 day) was 10.6 mg/dL and the Cl ([…], time 7 day) was 104.4 meq/L. For the same molecule, the DBIL ([…], time 7 day) was 0.074 mg/dL, the GLC ([…], time 7 day) was 186.2 mg/dL and the IP ([…], time 7 day) was 8.5 mg/dL. For the same molecule, the K ([…], time 7 day) was 4.1 meq/L, the LDH ([…], time 7 day) was 305.4 IU/L and the Na ([…], time 7 day) was 140.6 meq/L. It also gave a PL ([…], time 7 day) of 129.2 mg/dL, an RALB ([…], time 7 day) of 3.3 g/dL and a TBIL ([…], time 7 day) of 0.1 mg/dL. For the same molecule, the TC ([…], time 7 day) was 56 mg/dL, the TG ([…], time 7 day) was 44.4 mg/dL and the TP ([…], time 7 day) was 5.4 g/dL. It also gave a gamma-GTP ([…], time 7 day) of 1.4 IU/L, an A/G ([…], time 14 day) of 1.6 and an ALP ([…], time 14 day) of 1597.4 IU/L. For the same molecule, the ALT ([…], time 14 day) was 149.4 IU/L, the AST ([…], time 14 day) was 238.6 IU/L and the BUN ([…], time 14 day) was 16.4 mg/dL. The CRE ([…], time 14 day) was 0.5 mg/dL, the Ca ([…], time 14 day) was 10.4 mg/dL and the Cl ([…], time 14 day) was 103.8 meq/L. For the same molecule, the DBIL ([…], time 14 day) was 0.064 mg/dL, the GLC ([…], time 14 day) was 187.6 mg/dL and the IP ([…], time 14 day) was 7.5 mg/dL. The K ([…], time 14 day) was 3.9 meq/L, the LDH ([…], time 14 day) was 389.6 IU/L and the Na ([…], time 14 day) was 140.8 meq/L. For the same molecule, the PL ([…], time 14 day) was 113 mg/dL, the RALB ([…], time 14 day) was 3.4 g/dL and the TBIL ([…], time 14 day) was 0.1 mg/dL. The TC ([…], time 14 day) was 51.6 mg/dL, the TG ([…], time 14 day) was 21 mg/dL and the TP ([…], time 14 day) was 5.7 g/dL. The gamma-GTP ([…], time 14 day) was 1.4 IU/L, the A/G ([…], time 28 day) was 1.3 and the ALP ([…], time 28 day) was 1255 IU/L. It also gave an ALT ([…], time 28 day) of 300.8 IU/L, an AST ([…], time 28 day) of 396.2 IU/L and a BUN ([…], time 28 day) of 17.8 mg/dL. It also gave a CRE ([…], time 28 day) of 0.5 mg/dL, a Ca ([…], time 28 day) of 10.6 mg/dL and a Cl ([…], time 28 day) of 103.4 meq/L. The DBIL ([…], time 28 day) was 0.092 mg/dL, the GLC ([…], time 28 day) was 174.2 mg/dL and the IP ([…], time 28 day) was 6.4 mg/dL. The K ([…], time 28 day) was 3.9 meq/L, the LDH ([…], time 28 day) was 534.6 IU/L and the Na ([…], time 28 day) was 141.6 meq/L. It also gave a PL ([…], time 28 day) of 103.6 mg/dL, an RALB ([…], time 28 day) of 3.4 g/dL and a TBIL ([…], time 28 day) of 0.2 mg/dL. For the same molecule, the TC ([…], time 28 day) was 39.4 mg/dL, the TG ([…], time 28 day) was 20.8 mg/dL and the TP ([…], time 28 day) was 5.9 g/dL. It also gave a gamma-GTP ([…], time 28 day) of 1.2 IU/L.

— ChEMBL document CHEMBL3885861, “Open TG-GATES”
